Assay results reported in ChEMBL document CHEMBL4339231, “α,γ-Diketocarboxylic Acids and Their Esters Act as Carbonic Anhydrase IX and XII Selective Inhibitors” (ACS Med Chem Lett, 2019).
Activity calls are given as the source filed them. The rule behind the calls is not given here.

How the values were obtained:
Carbonic anhydrase 1 = Carbonic anhydrase 1 (Homo sapiens, UniProt P00915); test: Inhibition of human carbonic anhydrase 1 incubated for 15 mins by stopped flow CO2 hydrase assay
Carbonic anhydrase 2 = Carbonic anhydrase 2 (Homo sapiens, UniProt P00918); test: Inhibition of human carbonic anhydrase 2 incubated for 15 mins by stopped flow CO2 hydrase assay
Carbonic anhydrase 9 = Carbonic anhydrase 9 (Homo sapiens, UniProt Q16790); test: Inhibition of human carbonic anhydrase 9 incubated for 15 mins by stopped flow CO2 hydrase assay
MG-63 [1] = test: Cytotoxicity in human MG63 cells assessed as reduction in cell viability at 12.5 to 100 uM incubated for 72 hrs by acid phosphatase assay; format: functional, cell-based
HOS [2] = test: Cytotoxicity in human HOS cells assessed as reduction in cell viability at 12.5 to 100 uM incubated for 72 hrs by acid phosphatase assay; format: functional, cell-based
MG-63 [3] = test: Cytotoxicity in human MG63 cells assessed as reduction in cell viability at 25 uM incubated for 72 hrs by acid phosphatase assay; format: functional
HOS [4] = test: Cytotoxicity in human HOS cells assessed as reduction in cell viability at 25 uM incubated for 72 hrs by acid phosphatase assay; format: functional
MG-63 [5] = test: Antiproliferative activity against human MG63 cells assessed as reduction in cell viability incubated for 72 hrs by erythrosine B dye vital staining assay; format: functional, cell-based; details: MG-63, 72 h
HOS [6] = test: Antiproliferative activity against human HOS cells assessed as reduction in cell viability incubated for 72 hrs by erythrosine B dye vital staining assay; format: functional, cell-based
MG-63 [7] = test: Induction of apoptosis in human MG63 cells assessed as increase in caspase-3 activation at 25 uM incubated for 72 hrs by Caspase-GloR 3/7 assay; format: functional, cell-based
HOS [8] = test: Induction of apoptosis in human HOS cells assessed as increase in caspase-3 activation at 25 uM incubated for 72 hrs by Caspase-GloR 3/7 assay; format: functional, cell-based
MG-63 [9] = test: Induction of apoptosis in human MG63 cells assessed as increase in caspase-7 activation at 25 uM incubated for 72 hrs by Caspase-GloR 3/7 assay; format: functional, cell-based
HOS [10] = test: Induction of apoptosis in human HOS cells assessed as increase in caspase-7 activation at 25 uM incubated for 72 hrs by Caspase-GloR 3/7 assay; format: functional, cell-based
MG-63 [11] = test: Cytotoxicity in human MG63 cells assessed as reduction in cell viability at 50 uM incubated for 72 hrs by acid phosphatase assay; format: functional
HOS [12] = test: Cytotoxicity in human HOS cells assessed as reduction in cell viability at 50 uM incubated for 72 hrs by acid phosphatase assay; format: functional
MG-63 [13] = test: Induction of apoptosis in human MG63 cells assessed as increase in caspase-3 activation at 50 uM incubated for 72 hrs by Caspase-GloR 3/7 assay; format: functional, cell-based
MG-63 [14] = test: Induction of apoptosis in human MG63 cells assessed as increase in caspase-7 activation at 50 uM incubated for 72 hrs by Caspase-GloR 3/7 assay; format: functional, cell-based
HOS [15] = test: Induction of apoptosis in human HOS cells assessed as increase in caspase-3 activation at 50 uM incubated for 72 hrs by Caspase-GloR 3/7 assay; format: functional, cell-based
HOS [16] = test: Induction of apoptosis in human HOS cells assessed as increase in caspase-7 activation at 50 uM incubated for 72 hrs by Caspase-GloR 3/7 assay; format: functional, cell-based

Carbonic anhydrase 1, sequence (P00915 whole entry): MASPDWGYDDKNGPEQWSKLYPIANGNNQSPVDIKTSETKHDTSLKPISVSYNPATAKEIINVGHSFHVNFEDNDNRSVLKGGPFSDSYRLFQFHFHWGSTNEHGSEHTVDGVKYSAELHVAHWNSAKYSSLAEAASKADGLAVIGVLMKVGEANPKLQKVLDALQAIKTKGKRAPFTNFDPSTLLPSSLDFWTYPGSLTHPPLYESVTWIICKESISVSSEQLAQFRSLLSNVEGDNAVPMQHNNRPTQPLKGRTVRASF

Ki (Carbonic anhydrase 1)	Ki (Carbonic anhydrase 2)	Ki (Carbonic anhydrase 9)	SMILES	Activity (MG-63 [1])	Activity (HOS [2])	Activity (MG-63 [3])	Activity (HOS [4])	IC50 (MG-63 [5])	IC50 (HOS [6])	Activity (MG-63 [7])	Activity (HOS [8])	Activity (MG-63 [9])	Activity (HOS [10])	Activity (MG-63 [11])	Activity (HOS [12])	Activity (MG-63 [13])	Activity (MG-63 [14])	Activity (HOS [15])	Activity (HOS [16])
> 10 µM	8.65 µM	0.0379 µM	CCOC(=O)/C(O)=C/C(=O)/C=C/c1ccc(NC(=O)c2cccc3ccccc23)cc1	Dose-dependent effect	Dose-dependent effect	16.4%	19.7%	14.7 µM	15.6 µM	inactive	inactive	inactive	inactive						
> 10 µM	2.58 µM	0.0128 µM	O=C(/C=C(\O)C(=O)O)/C=C/c1ccc(NC(=O)c2cccc3ccccc23)cc1																
6.18 µM	9.44 µM	0.0126 µM	CCOC(=O)/C(O)=C/C(=O)/C=C/c1ccc(NC(=O)c2ccc3ccccc3c2)cc1	Dose-dependent effect	Dose-dependent effect			45.8 µM	19.2 µM					50%	50%	inactive	inactive	inactive	inactive

Continued, molecule first:

SMILES	Ki (Carbonic anhydrase 1)	Ki (Carbonic anhydrase 2)	Ki (Carbonic anhydrase 9)	Activity (MG-63 [1])	Activity (HOS [2])	Activity (MG-63 [3])	Activity (HOS [4])	IC50 (MG-63 [5])	IC50 (HOS [6])	Activity (MG-63 [7])	Activity (HOS [8])	Activity (MG-63 [9])	Activity (HOS [10])	Activity (MG-63 [11])	Activity (HOS [12])	Activity (MG-63 [13])	Activity (MG-63 [14])	Activity (HOS [15])	Activity (HOS [16])
CCOC(=O)/C(O)=C/C(=O)/C=C/c1ccc(NC(=O)c2ccccc2)cc1	7.33 µM	> 10 µM	0.0902 µM																
O=C(/C=C(\O)C(=O)O)/C=C/c1ccc(NC(=O)c2ccccc2)cc1	> 10 µM	5.03 µM	0.0125 µM																
O=C(/C=C(\O)C(=O)O)/C=C/c1ccc(NC(=O)c2ccc3ccccc3c2)cc1	8.98 µM	2.08 µM	0.0113 µM	inactive	inactive														
